Results from PMC11811690 (Angewandte Chemie (International Ed. in English), 2024).

Tested on: Rif-resistant Mtb isolate (clinical isolate, rpoB mutant S531L)
Type: cell-based, Mycobacterium tuberculosis

| Compound | MIC Rif-resistant Mtb isolate, turbidity read-out |
| --- | --- |
| CC[C@H]1/C=C(\C)[C@@H](O)C/C=C/C=C(\CN(C)Cc2nnc(-c3ccccc3)o2)C(=O)O[C@H]([C@@H](C)O)C/C=C(C)/C=C(\C)[C@@H]1O[C@@H]1OC(C)(C)[C@@H](OC(=O)C(C)C)[C@H](O)[C@@H]1O [compound 7] | 8 to 16 µg/mL |
| CC[C@H]1/C=C(\C)[C@@H](O)C/C=C/C=C(\CNc2nc3ccccc3s2)C(=O)O[C@H]([C@@H](C)O)C/C=C(C)/C=C(\C)[C@@H]1O[C@@H]1OC(C)(C)[C@@H](OC(=O)C(C)C)[C@H](O)[C@@H]1O [compound 9] | 8 to 16 µg/mL |
| CC[C@H]1/C=C(\C)[C@@H](O)C/C=C/C=C(\CNc2nc(COc3ccccc3)cs2)C(=O)O[C@H]([C@@H](C)O)C/C=C(C)/C=C(\C)[C@@H]1O[C@@H]1OC(C)(C)[C@@H](OC(=O)C(C)C)[C@H](O)[C@@H]1O [compound 10] | 8 to 16 µg/mL |
| CC[C@H]1/C=C(\C)[C@@H](O)C/C=C/C=C(\CNc2nc(-c3ccccc3)cs2)C(=O)O[C@H]([C@@H](C)O)C/C=C(C)/C=C(\C)[C@@H]1O[C@@H]1OC(C)(C)[C@@H](OC(=O)C(C)C)[C@H](O)[C@@H]1O [compound 13] | 8 to 16 µg/mL |
| CC[C@H]1/C=C(\C)[C@@H](O)C/C=C/C=C(\CNCc2nnc(-c3ccccc3)o2)C(=O)O[C@H]([C@@H](C)O)C/C=C(C)/C=C(\C)[C@@H]1O[C@@H]1OC(C)(C)[C@@H](OC(=O)C(C)C)[C@H](O)[C@@H]1O [compound 16] | 4 to 8 µg/mL |
| CC[C@H]1/C=C(\C)[C@@H](O)C/C=C/C=C(\CNCc2nnc(-c3ccc(OC)c(OC)c3Cl)o2)C(=O)O[C@H]([C@@H](C)O)C/C=C(C)/C=C(\C)[C@@H]1O[C@@H]1OC(C)(C)[C@@H](OC(=O)C(C)C)[C@H](O)[C@@H]1O [compound 18] | 4 to 8 µg/mL |
| CC[C@H]1/C=C(\C)[C@@H](O)C/C=C/C=C(\CNCc2nnc(-c3ccc(C(F)(F)F)cc3)o2)C(=O)O[C@H]([C@@H](C)O)C/C=C(C)/C=C(\C)[C@@H]1O[C@@H]1OC(C)(C)[C@@H](OC(=O)C(C)C)[C@H](O)[C@@H]1O [compound 23] | 4-8 |
| CC[C@H]1/C=C(\C)[C@@H](O)C/C=C/C=C(\CNc2ccc(C#N)cc2)C(=O)O[C@H]([C@@H](C)O)C/C=C(C)/C=C(\C)[C@@H]1O[C@@H]1OC(C)(C)[C@@H](OC(=O)C(C)C)[C@H](O)[C@@H]1O [compound 24] | 16-32 |
| CC[C@H]1/C=C(\C)[C@@H](O)C/C=C/C=C(\CNc2ccc(C#N)cn2)C(=O)O[C@H]([C@@H](C)O)C/C=C(C)/C=C(\C)[C@@H]1O[C@@H]1OC(C)(C)[C@@H](OC(=O)C(C)C)[C@H](O)[C@@H]1O [compound 25] | 16-32 |
